Test results from patent US20010029261A1, “Small molecule sulfonamide hair growth compositions and uses” (GUILFORD PHARMACEUTICALS INC., priority 1997, published 2001).

Key:
hair growth = conditions: topical, but not oral, application; cited from earlier work
FKBP12 = FKBP12 (Homo sapiens, UniProt P62942); assay: Ki test procedure: inhibition of peptidyl-prolyl isomerase (rotamase) activity, chymotrypsin-coupled assay; type: biochemical; conditions: apparent Ki
Source text: The inhibition of the prolyl peptidyl cis-trans isomerase activity of FKBP may be measured as an indicator of this affinity.
Inhibition of the peptidyl-prolyl isomerase (rotamase) activity of the compounds used in the inventive methods and pharmaceutical compositions can be evaluated by known methods described in the literature (Harding et al., Nature, 1989, 341:758-760; Holt et al. J. Am. Chem. Soc., 115:9923-9938). These values are obtained as apparent Ki's and are presented for representative compounds in TABLE II.
The cis-trans isomerization of an alanine-proline bond in a model substrate, N-succinyl-Ala-Ala-Pro-Phe-p-nitroanilide, is monitored spectrophotometrically in a chymotrypsin-coupled assay, which releases para-nitroanilide from the trans form of the substrate. The inhibition of this reaction caused by the addition of different concentrations of inhibitor is determnined, and the data is analyzed as a change in first-order rate constant as a function of inhibitor concentration to yield the apparent Ki values.
In a plastic cuvette are added […] of ice cold assay buffer (25 mM HEPES, pH 7.8, 100 mM NaCl), 10 mL of FKBP (2.5 mM in 10 mM Tris-Cl pH 7.5, 100 mM NaCl, 1 mM dithiothreitol), […] of chymotrypsin (50 mg/ml in 1 mM HCl) and […] of test compound at various concentrations in dimethyl sulfoxide. The reaction is initiated by the addition of 5 mL of substrate (succinyl-Ala-Phe-Pro-Phe-para-nitroanilide, 5 mg/mL in 2.35 mM LiCl in trifluoroethanol).
The absorbance at 390 nm versus time is monitored for 90 seconds using a spectrophotometer and the rate constants are determined from the absorbance versus time data files.

FKBP12, sequence (P62942 whole entry, species assumed): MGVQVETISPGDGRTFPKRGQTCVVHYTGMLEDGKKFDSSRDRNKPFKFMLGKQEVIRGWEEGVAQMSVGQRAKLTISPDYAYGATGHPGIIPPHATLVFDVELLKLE

| Compound | Ki (FKBP12) [nM] | hair growth stimulation (hair growth) |
| --- | --- | --- |
| C=CC[C@@H]1/C=C(\C)C[C@H](C)C[C@H](OC)[C@H]2O[C@@](O)(C(=O)C(=O)N3CCCC[C@H]3C(=O)O[C@H](/C(C)=C/[C@@H]3CC[C@@H](O)[C@H](OC)C3)[C@H](C)[C@@H](O)CC1=O)[C@H](C)C[C@@H]2OC [FK506] |  | stimulates hair growth in a dose-dependent manner |
| O=C(OCCCCc1ccccc1)C1CCCCN1S(=O)(=O)Cc1ccccc1 (stereo not drawn) [Compound 7, 4-phenyl-1-butyl-N-(α-toluene-sulfonyl)pipecolate] | 127 |  |
| O=C(OCCCc1cccnc1)[C@@H]1CCCN1S(=O)(=O)Cc1ccccc1 [Compound 4, 3-(3-pyridyl)-1-propyl-(2S)-N-(α-toluenesulfonyl)pyrrolidine-2-carboxylate] | 332 |  |

Further lines, with some results ahead:

| Ki (FKBP12) [nM] | Compound | hair growth stimulation (hair growth) |
| --- | --- | --- |
| 72 | O=C(OCCCCc1ccccc1)C1CCCCN1S(=O)(=O)Cc1ccccc1 (racemic) [Compound 1, 4-phenyl-1-butyl-1-(benzylsulfonyl)-(2R,S)-2-pipecolinate] |  |
| 34 | O=C(OC(CCc1ccccc1)CCc1ccccc1)C1CCCCN1S(=O)(=O)Cc1ccccc1 (stereo not drawn) [Compound 2, 1,5-diphenyl-3-pentyl-N-(α-toluene-sulfonyl)pipecolate] |  |
